pIC50: −log10 of the molar value.
Each compound was assayed against JAK2 (Homo sapiens (Human), UniProt O60674) (assay: JAK Kinase Assay (JAK2)). Settings: KINASE-GLO luminescent kinase assay.
Assay type: biochemical

JAK2, sequence (O60674 whole entry, species assumed): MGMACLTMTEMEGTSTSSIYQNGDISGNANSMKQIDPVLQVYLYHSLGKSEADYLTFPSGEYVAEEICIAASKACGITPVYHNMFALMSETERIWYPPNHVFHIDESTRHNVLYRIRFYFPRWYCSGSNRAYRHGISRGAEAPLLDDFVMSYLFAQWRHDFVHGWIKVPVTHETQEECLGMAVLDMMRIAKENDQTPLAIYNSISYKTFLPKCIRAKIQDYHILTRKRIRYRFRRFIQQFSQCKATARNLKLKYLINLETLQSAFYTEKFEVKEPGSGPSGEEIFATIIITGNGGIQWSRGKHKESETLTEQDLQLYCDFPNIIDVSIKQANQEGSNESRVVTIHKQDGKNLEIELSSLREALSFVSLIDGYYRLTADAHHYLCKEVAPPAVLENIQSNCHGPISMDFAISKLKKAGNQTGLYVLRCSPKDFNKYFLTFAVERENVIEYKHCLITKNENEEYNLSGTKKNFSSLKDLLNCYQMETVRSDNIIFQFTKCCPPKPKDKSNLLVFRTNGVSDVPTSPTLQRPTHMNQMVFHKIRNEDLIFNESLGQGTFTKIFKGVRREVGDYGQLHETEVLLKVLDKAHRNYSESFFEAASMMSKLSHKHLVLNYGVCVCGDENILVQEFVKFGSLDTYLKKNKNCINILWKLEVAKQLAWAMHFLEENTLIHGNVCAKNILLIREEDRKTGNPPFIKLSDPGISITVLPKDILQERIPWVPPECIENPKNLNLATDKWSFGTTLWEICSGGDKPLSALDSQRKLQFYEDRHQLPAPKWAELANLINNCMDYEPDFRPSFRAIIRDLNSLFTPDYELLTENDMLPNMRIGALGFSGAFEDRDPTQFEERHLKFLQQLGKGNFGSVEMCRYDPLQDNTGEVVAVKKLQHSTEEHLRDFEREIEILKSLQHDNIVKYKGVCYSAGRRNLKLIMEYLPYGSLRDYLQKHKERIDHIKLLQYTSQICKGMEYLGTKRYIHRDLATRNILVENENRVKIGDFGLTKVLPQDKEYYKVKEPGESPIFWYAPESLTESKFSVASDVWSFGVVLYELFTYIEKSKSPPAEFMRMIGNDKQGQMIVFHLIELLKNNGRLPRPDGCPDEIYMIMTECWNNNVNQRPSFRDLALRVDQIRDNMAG

`O=C(Nc1ccc2cnccc2n1)[C@@H]1CC1c1ccc(S(=O)(=O)Nc2ccccn2)cc1` (mixture of isomers) [Compound 4] and `O=C(Nc1ccc2cnccc2n1)C1CC1c1ccc(S(=O)(=O)Nc2ccccn2)cc1` (centres unmarked) [Compound 22] are the same in pIC50: 7.66 for the first, 7.66 for the second.

`Cc1cncc2sc(NC(=O)[C@@H]3C[C@H]3c3ccc(S(=O)(=O)Nc4ccccn4)cc3)cc12` (racemic) [Compound 5] showed a pIC50 of 8.05.

What follows are compounds tested against ROCK2 (Homo sapiens (Human), UniProt O75116) (assay: ROCK Kinase Inhibition Assay (ROCK2)). Settings: KINASE-GLO luminescent kinase assay.
ROCK2, sequence (O75116 whole entry, species assumed): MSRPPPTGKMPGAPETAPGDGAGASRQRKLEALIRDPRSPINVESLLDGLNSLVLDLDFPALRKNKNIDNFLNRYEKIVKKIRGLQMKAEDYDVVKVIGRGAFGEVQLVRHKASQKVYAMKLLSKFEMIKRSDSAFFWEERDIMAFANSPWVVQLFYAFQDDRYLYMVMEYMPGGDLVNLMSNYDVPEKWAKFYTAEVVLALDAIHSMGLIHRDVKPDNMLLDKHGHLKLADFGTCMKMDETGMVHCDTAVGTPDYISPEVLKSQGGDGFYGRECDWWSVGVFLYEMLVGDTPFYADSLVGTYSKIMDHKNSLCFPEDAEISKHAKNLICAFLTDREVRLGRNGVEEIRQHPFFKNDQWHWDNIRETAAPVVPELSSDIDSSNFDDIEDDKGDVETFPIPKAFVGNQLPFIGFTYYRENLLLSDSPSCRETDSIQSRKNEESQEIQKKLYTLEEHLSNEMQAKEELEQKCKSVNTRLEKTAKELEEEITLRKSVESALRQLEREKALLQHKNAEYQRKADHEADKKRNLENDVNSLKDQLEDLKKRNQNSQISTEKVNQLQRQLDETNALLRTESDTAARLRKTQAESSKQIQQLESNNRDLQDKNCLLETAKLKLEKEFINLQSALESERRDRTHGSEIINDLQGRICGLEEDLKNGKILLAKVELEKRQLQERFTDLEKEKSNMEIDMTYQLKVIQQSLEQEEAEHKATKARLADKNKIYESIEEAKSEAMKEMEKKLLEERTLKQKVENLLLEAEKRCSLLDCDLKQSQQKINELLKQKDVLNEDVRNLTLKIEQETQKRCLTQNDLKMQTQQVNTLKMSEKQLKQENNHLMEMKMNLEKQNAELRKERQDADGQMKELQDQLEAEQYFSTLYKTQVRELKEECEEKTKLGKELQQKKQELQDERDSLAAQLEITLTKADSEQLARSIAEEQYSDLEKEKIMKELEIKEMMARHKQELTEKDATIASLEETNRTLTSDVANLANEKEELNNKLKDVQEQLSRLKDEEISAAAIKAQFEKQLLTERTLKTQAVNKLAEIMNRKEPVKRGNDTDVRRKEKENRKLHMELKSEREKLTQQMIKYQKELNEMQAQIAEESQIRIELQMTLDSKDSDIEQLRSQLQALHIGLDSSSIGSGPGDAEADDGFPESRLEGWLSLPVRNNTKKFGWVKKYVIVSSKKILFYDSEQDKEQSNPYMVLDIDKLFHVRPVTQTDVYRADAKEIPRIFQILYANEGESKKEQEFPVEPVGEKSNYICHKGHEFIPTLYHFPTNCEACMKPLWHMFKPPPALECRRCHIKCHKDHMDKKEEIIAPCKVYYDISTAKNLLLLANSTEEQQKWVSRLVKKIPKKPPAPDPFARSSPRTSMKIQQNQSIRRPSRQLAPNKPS
Assay type: biochemical
Method: (§1) All compounds were initially prepared as 10 mM stocks in anhydrous dimethylsulfoxide (DMSO). A 20 μL aliquot of the 10 mM solutions was transferred to individual wells in column 1 of a 96-well polypropylene microtiter plate (Corning #3363) and diluted with DMSO to give a final compound concentration of 4 mM. Test compounds were then serially diluted 1:5 in DMSO for an 11-point concentration response and further diluted in the assay buffer bringing all compound concentrations to a final range of 100 μM to […] in 2.5% DMSO. The assay was performed in white 96-well, flat-bottom, half-area, non-binding assay plate (Corning #3642) in assay buffer consisting of 20 mM HEPES (pH 7.5), 10 mM MgCl2*6H2O, 100 μM sodium orthovanadate, 0.05% CHAPS and 0.1% bovine serum albumin. […] The reaction was initiated by the addition of 10 μL of 4× stock solution ATP (2 μM). Reactions were thoroughly mixed manually, covered and allowed to incubate at room temperature for 75 min. Protein kinase activity was quantitated using Promega's KINASE-GLO™ luminescent Kinase Assay Kit according to the manufacturer's directions. ATP concentrations remaining in Test wells following the termination of the enzymatic reaction were compared against control wells containing equivalent amounts of DMSO containing no inhibitor (CTRL). […] Percent of Control (POC) values were determined for each concentration of compound tested according to the equation: POC=((Test well value−BKG)/(CTRL−BKG))*100 IC50 values were calculated using the following 4-parameter logistic curve-fitting algorithm: f(x)=(A+((B−A)/(1+((x/C)^D)))) IC50 values were converted to Ki values using the following Cheng-Prusoff Equation: Ki=IC50/(1+([ATP]/Km ATP])). JAK Kinase Assays.

`O=C(Nc1nc2ccncc2s1)[C@@H]1CC1c1ccc(S(=O)(=O)Nc2ccccn2)cc1` (mixture of isomers) [Compound 3] and `O=C(Nc1ccc2cnccc2n1)[C@@H]1CC1c1ccc(S(=O)(=O)Nc2ccccn2)cc1` (mixture of isomers) [Compound 4] are the same in pIC50: 8.22 for the first, 8.22 for the second.

Compared with `Cc1cncc2sc(NC(=O)C3CC3c3cc(C(=O)NCc4ncccn4)cs3)cc12` (centres unmarked) [Compound 2], `Cc1cncc2sc(NC(=O)[C@@H]3C[C@H]3c3ccccc3)cc12` [Compound 13] is 0.56 log units lower in pIC50: 8.30 for the first, 7.74 for the second. The first is the more potent here.

First: O=C(Nc1ccc2cnccc2n1)C1CC1c1ccccc1 (centres unmarked) [Compound 11]
Second: O=C(Nc1ccc2cnccc2n1)C1CC1c1ccncc1 (centres unmarked) [Compound 17]
The pIC50 of the first is 0.63 log units higher: 8.15 for the first, 7.52 for the second. The first is the more potent here.

Compared with `O=C(Nc1nc2ccncc2s1)C1CC1c1ccccc1` (centres unmarked) [Compound 12], `O=C(Nc1nc2ccncc2s1)C1CC1c1ccncc1` (centres unmarked) [Compound 18] is 0.40 log units lower in pIC50: 7.92 for the first, 7.52 for the second.

Compared with `Cc1cncc2sc(NC(=O)C3CC3c3ccncc3)cc12` (centres unmarked) [Compound 14], `O=C(Nc1cc2c(Cl)cncc2s1)C1CC1c1ccncc1` (centres unmarked) [Compound 21] is 0.31 log units higher in pIC50: 6.64 for the first, 6.95 for the second. The second is the more potent here.

With `Cc1cncc2sc(NC(=O)C3CC3c3ccccc3)cc12` (centres unmarked) [Compound 16] the pIC50 was 7.27.

The compounds below were run against ROCK1 (Homo sapiens (Human), UniProt Q13464) (assay: ROCK Kinase Inhibition Assay (ROCK1)). Settings: KINASE-GLO luminescent kinase assay.
ROCK1, sequence (Q13464 whole entry, species assumed): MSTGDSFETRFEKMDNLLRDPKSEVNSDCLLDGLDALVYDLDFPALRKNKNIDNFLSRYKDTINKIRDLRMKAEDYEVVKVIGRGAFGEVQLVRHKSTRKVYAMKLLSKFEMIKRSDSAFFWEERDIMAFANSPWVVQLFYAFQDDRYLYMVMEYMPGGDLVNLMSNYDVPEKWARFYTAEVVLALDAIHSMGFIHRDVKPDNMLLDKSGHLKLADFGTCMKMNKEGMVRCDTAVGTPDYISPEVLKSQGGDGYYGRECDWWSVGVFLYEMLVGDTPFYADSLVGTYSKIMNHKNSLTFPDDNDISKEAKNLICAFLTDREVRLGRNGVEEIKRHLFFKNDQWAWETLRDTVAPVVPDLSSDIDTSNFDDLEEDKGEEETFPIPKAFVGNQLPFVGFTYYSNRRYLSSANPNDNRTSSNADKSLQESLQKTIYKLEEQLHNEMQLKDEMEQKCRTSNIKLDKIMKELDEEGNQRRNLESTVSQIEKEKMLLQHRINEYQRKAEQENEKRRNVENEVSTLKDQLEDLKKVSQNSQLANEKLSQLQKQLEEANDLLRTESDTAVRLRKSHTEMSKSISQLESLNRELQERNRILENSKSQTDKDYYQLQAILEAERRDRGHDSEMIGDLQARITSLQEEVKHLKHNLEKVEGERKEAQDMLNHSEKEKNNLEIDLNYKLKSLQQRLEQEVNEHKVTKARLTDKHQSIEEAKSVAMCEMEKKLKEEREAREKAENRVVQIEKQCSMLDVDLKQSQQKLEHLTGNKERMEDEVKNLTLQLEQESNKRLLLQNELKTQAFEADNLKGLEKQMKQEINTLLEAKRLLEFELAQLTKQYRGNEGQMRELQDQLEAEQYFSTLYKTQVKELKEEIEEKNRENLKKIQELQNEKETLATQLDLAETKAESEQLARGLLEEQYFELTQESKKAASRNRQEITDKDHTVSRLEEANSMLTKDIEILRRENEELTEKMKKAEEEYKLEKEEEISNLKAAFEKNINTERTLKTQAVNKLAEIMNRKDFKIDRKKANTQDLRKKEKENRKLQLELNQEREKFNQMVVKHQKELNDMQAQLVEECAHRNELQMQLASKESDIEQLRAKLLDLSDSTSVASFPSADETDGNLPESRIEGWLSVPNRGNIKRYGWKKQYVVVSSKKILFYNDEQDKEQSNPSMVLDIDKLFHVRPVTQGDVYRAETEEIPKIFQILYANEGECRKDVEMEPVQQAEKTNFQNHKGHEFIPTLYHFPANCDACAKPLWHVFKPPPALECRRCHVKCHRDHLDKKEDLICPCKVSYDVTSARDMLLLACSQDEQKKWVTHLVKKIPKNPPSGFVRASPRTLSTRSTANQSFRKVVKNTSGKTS
Assay type: biochemical
Method: as §1, with “Reactions were thoroughly mixed manually, covered and allowed to incubate at room temperature for 75 min.” left out, “directions.” for “directions. ATP concentrations remaining in Test wells following the termination of the enzymatic reaction were compared against control wells containing equivalent amounts of DMSO containing no inhibitor (CTRL).”, “JAK Kinase Assays.” left out

First: O=C(Nc1nc2ccncc2s1)[C@@H]1CC1c1ccc(S(=O)(=O)Nc2ccccn2)cc1 (mixture of isomers) [Compound 3]
Second: O=C(Nc1cc2c(Cl)cncc2s1)C1CC1c1ccccc1 (centres unmarked) [Compound 19]
The pIC50 of the first is 0.78 log units higher: 8.15 for the first, 7.37 for the second.

Each compound was assayed against TYK2 (Homo sapiens (Human), UniProt P29597) (assay: JAK Kinase Assay (TYK2)). Settings: KINASE-GLO luminescent kinase assay.
TYK2, sequence (P29597 whole entry, species assumed): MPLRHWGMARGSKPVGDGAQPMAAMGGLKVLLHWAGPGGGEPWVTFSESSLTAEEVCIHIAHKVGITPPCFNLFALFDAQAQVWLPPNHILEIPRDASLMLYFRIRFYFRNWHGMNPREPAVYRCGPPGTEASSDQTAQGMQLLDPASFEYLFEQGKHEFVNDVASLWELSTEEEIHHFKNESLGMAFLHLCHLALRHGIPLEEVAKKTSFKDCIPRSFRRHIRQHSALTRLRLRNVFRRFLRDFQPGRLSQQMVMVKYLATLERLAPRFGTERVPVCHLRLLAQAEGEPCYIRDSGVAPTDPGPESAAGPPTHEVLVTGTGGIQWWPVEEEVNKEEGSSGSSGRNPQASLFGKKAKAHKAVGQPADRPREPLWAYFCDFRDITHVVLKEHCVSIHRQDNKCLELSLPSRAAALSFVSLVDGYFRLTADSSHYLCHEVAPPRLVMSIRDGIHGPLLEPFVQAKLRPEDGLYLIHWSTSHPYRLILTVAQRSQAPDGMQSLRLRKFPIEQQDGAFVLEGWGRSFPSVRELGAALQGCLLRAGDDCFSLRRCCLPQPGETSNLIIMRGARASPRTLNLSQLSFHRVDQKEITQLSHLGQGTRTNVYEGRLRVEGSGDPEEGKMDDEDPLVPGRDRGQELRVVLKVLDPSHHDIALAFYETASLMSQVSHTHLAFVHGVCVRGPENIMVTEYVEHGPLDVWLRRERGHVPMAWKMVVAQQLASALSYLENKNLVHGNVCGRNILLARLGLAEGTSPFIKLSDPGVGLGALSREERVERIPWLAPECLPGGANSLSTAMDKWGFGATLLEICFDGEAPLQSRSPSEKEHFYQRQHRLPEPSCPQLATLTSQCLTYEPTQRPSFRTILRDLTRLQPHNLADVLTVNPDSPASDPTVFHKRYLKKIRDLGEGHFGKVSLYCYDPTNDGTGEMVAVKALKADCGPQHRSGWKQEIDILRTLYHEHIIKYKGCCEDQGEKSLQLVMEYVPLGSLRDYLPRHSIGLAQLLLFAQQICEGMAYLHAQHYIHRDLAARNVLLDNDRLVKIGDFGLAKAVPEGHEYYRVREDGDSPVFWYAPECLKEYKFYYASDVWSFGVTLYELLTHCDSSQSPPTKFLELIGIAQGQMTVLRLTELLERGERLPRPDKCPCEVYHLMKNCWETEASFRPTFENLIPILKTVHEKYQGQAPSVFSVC
Assay type: biochemical

First: Cc1cncc2sc(NC(=O)[C@@H]3C[C@H]3c3ccc(S(=O)(=O)Nc4ccccn4)cc3)cc12 [Compound 6]
Second: O=C(Nc1cc2c(Cl)cncc2s1)[C@@H]1C[C@H]1c1ccc(S(=O)(=O)Nc2ccccn2)cc1 [Compound 7]
The pIC50 of the first is 0.86 log units lower: 8.10 for the first, 8.96 for the second. The second is the more potent here.

`O=C(NCc1ncccn1)c1csc(C2CC2C(=O)Nc2cc3c(Cl)cncc3s2)c1` (centres unmarked) [Compound 20] was tested, and the pIC50 was 7.46.

The compounds below were run against JAK1 (Homo sapiens (Human), UniProt P23458) (assay: JAK Kinase Assay (JAK1)). Settings: KINASE-GLO luminescent kinase assay.
Assay type: biochemical

Compound `O=C(Nc1cc2c(Cl)cncc2s1)[C@@H]1C[C@H]1c1ccccc1` [Compound 15] has a pIC50 of 6.46.

— patent US12459956B2, “Heterobicyclic carboxamides and uses thereof” (ALCON INC., priority 2019, dated 2025)
